# Measured values published in US20080011191A1, “Novel Azo Compound or Salt, Ink Composition Comprising Such Azo Compound, and Colored Article” (priority 2004, published 2008).
# How the values were obtained:
# Assay type in all cases: physicochemical
# [1] = Evaluation of hue and vividness of a recorded image on glossy paper (colorimetry, GRETAG SPM50); details: for Vividness C*: C*=((a*)^2+(b*)^2)^1/2, glossy paper PR-101; for Vividness C* (3-level evaluation): glossy paper PR-101; for Brilliance L* / Hue a* / Hue b*: inkjet print of Table 3 ink (3.0 parts compound) on glossy paper Professional Photopaper PR-101
# Description: (§1) A liquid of a composition shown in the following Table 3 is prepared using a compound (Compound No. 1) obtained in (2) of the above Example 1, followed by filtration with a 0.45 μm membrane filter to obtain each water-based ink composition for inkjet recording. Ion exchange water was used as water. In addition, water and ammonia water were added thereto to adjust the pH of the ink composition to 7 to 10 and a total amount of the ink composition to 100 parts. The test using the compound obtained in (2) of Example 1 is Example 7. Similarly the tests using the compounds obtained in Examples 2 to 6 are Examples 8 to 12 respectively.
# (§2) Using an inkjet printer (Pixus 860i from Canon Inc.), inkjet recording was conducted on glossy paper having an ink-receiving layer containing a porous white inorganic substance (Professional Photopaper PR-101 from Canon Inc.). In inkjet recording, an image pattern was made so as to obtain gradations of several stages in printing density, and a print was made.
# Hue and vividness in a recorded image : recorded paper was measured using a colorimetric system (GRETAG SPM50 from GRETAG Co., Ltd.), values of L*, a* and b* were calculated, and for vividness, C*=((a*)^2+(b*)^2)^1/2 was calculated from color level (a* and b*) where color level a* of each recording paper is similar. And vividness was evaluated on the following 3 levels judging from the measured results and the results are shown jointly in Table 4. • 90≦C* . . . ∘ • 80≦C*<90 . . . Δ
# [2] = Xenon light fastness test of a recorded image; details: xenon weatherometer Ci4000, 50 hours, 0.36 W/m^2, 2 mm glass plate and air layer, printed glossy paper and plain paper
# Description: as §1, §2
# Using a xenon weatherometer Ci4000 (from ATLAS Co., Ltd.), pieces of testing paper of printed glossy paper and plain paper from Canon, Inc., on which a glass plate having a thickness of 2 mm and an air layer were set up, were irradiated for 50 hours at illuminance of 0.36 W/m^2, and color difference (ΔE) before and after the test was measured and evaluated on 3 levels. • ΔE≦10 . . . ∘ • 10<ΔE≦20 . . . Δ • 20<ΔE . . . x The results are shown in Table 5. (E) Ozone Gas Fastness Test of a Recorded Image
# [3] = Ozone gas fastness test of a recorded image; details: ozone 40 ppm, 60% RH, 24° C., 3 hours, glossy paper
# Description: A liquid of a composition shown in the following Table 3 is prepared using a compound (Compound No. 1) obtained in (2) of the above Example 1, followed by filtration with a 0.45 μm membrane filter to obtain each water-based ink composition for inkjet recording. Ion exchange water was used as water. In addition, water and ammonia water were added thereto to adjust the pH of the ink composition to 7 to 10 and a total amount of the ink composition to 100 parts. The test using the compound obtained in (2) of Example 1 is Example 7. Similarly the tests using the compounds obtained in Examples 2 to 6 are Examples 8 to 12 respectively. Using an inkjet printer (Pixus 860i from Canon Inc.), inkjet recording was conducted on glossy paper having an ink-receiving layer containing a porous white inorganic substance (Professional Photopaper PR-101 from Canon Inc.). In inkjet recording, an image pattern was made so as to obtain gradations of several stages in printing density, and a print was made. Using an ozone weatherometer (from Suga Testing Machine Co., Ltd.), a piece of testing paper printed on glossy paper from Canon, Inc. was left for 3 hours under conditions of ozone concentration of 40 ppm, humidity of 60% RH and temperature of 24° C., and color difference (ΔE) before and after the test was measured and evaluated on 3 levels. • ΔE≦20 . . . ∘ • 20<ΔE≦40 . . . Δ • 40<ΔE . . . x
SMILES,Vividness C* [1],Vividness C* (3-level evaluation) [1],Brilliance L* [1],Hue a* [1],Hue b* [1],"Light fastness (color difference ΔE before and after the test, 3 levels) [2]","Ozone fastness (color difference ΔE before and after the test, 3 levels) [3]"
Cc1c(C#N)c(NCCS(=O)(=O)O)nc(NCCS(=O)(=O)O)c1N=Nc1nc2ccccc2s1 [Compound No. 1],109.7,∘ (90≦C*),66.8,53.7,96.1,∘ (ΔE≦10),∘ (ΔE≦20)
Cc1c(C#N)c(NCCS(=O)(=O)O)nc(NCCS(=O)(=O)O)c1N=Nc1nc2ccc(S(=O)(=O)O)cc2s1 [Compound No. 2],101.9,∘ (90≦C*),68.3,53.5,86.8,∘ (ΔE≦10),∘ (ΔE≦20)
Cc1c(C#N)c(NCCS(=O)(=O)O)nc(NCCS(=O)(=O)O)c1N=Nc1nc2ccc(S(C)(=O)=O)cc2s1 [Compound No. 3],,,,,,∘ (ΔE≦10),∘ (ΔE≦20)
COc1ccc2nc(N=Nc3c(NCCS(=O)(=O)O)nc(NCCS(=O)(=O)O)c(C#N)c3C)sc2c1 [Compound No. 4],,,,,,∘ (ΔE≦10),∘ (ΔE≦20)

# Other lines, results leading:
Vividness C* [1],Vividness C* (3-level evaluation) [1],Brilliance L* [1],Hue a* [1],Hue b* [1],"Light fastness (color difference ΔE before and after the test, 3 levels) [2]","Ozone fastness (color difference ΔE before and after the test, 3 levels) [3]",SMILES
,,,,,∘ (ΔE≦10),∘ (ΔE≦20),Cc1c(C#N)c(NCCS(=O)(=O)O)nc(NCCS(=O)(=O)O)c1N=Nc1nc2ccc(C(=O)O)cc2s1 [Compound No. 5]
,,,,,∘ (ΔE≦10),∘ (ΔE≦20),Cc1c(C#N)c(NCCS(=O)(=O)O)nc(NCCS(=O)(=O)O)c1/N=N/c1snc2ccc(S(=O)(=O)O)cc12 [Compound No. 8]
